The NIST ThermoML archive (doi:10.1021/je4003916)

Key:
[1] = xn = mol fraction of the nth substance listed; settings: 101 kPa, Liquid, x2 = 0; for mass density: Vibrating tube method
[2] = refractive index (Na D-line) (dimensionless); xn = mol fraction of the nth substance listed; settings: 101 kPa, Liquid, Dipping refractometry (monochromatic), x2 = 0
[3] = 293.15 K; 101.33 kPa; Liquid; Vibrating tube method

CCCCO [butan-1-ol] + C1CCOC1
Settings | mass density, [1] [kg/m3] | refractive index, [2] | viscosity, [1] [mPa·s]
288.15 K | 813.37 | 1.4014 | 3.375
293.15 K | 809.57 | 1.3993 | 2.945
298.15 K | 805.76 | 1.3973 | 2.581
303.15 K | 801.92 | 1.3952 | 2.272
308.15 K | 798.05 | 1.3932 | 2.008
313.15 K | 794.15 | 1.3911 | 1.782
318.15 K | 790.23 | 1.389 | 1.587
323.15 K | 786.24 | 1.3869 | 1.419

CCCCO [butan-1-ol] + COC(=O)CCCCC(=O)OC
[1], stabinger viscometer
Settings | viscosity [mPa·s]
288.15 K | 3.375
293.15 K | 2.945
298.15 K | 2.581
303.15 K | 2.272
308.15 K | 2.008
313.15 K | 1.782
318.15 K | 1.587
323.15 K | 1.419

COC(=O)CCCCC(=O)OC [dimethyl 1,6-hexanedioate]
Settings | mass density [kg/m3]
[3] | 1061.93
